# Experimental data published in patent US20070167490A1, “Imino ether derivative compounds and drugs containing the compounds as the active ingredient” (Ono Pharmaceutical Co Ltd, priority 2003, published 2007).
row,melting point [°C],Structure (SMILES)
1,117 to 120,"CC/C(=N\OCCOc1cccc(CC(=O)O)c1)c1ccc(-c2cccs2)cc1 [14(30), (3-{2-[({(1E)-1-[4-(2-thienyl)phenyl]propylidene}amino)oxy]ethoxy}phenyl)acetic acid]"
2,143.5 to 147,"CC/C(=N\OCCOc1cccc(CC(=O)O)c1)c1ccc(-n2cccn2)cc1 [14(35), (3-{2-[({(1E)-1-[4-(1H-pyrazol-1-yl)phenyl]propylidene}amino)oxy]ethoxy}phenyl)acetic acid]"
